≈ marks a conversion by molar mass, not a printed value. Where two headings read alike, the source gives them in different places.
Columns and labels:
[1] = target: C-kinase (protein kinase C); assay: C-Kinase inhibitory activity test; assay type: biochemical; conditions: concentration at which enzyme activity was inhibited 50%
Method: (§1) Compound (I) obtained by the present invention was examined for C-kinase inhibitory activity and cell growth inhibitory activity by the following methods.
C-Kinase inhibitory activity test:
C-Kinase inhibitory activity of representative Compounds (I) was measured in accordance with the method of Y. Nishizuka, et al. [J. Biol. Chem., 257, 13341 (1982)]. The test was carried out on test compounds at varied concentrations, and the concentration at which the enzyme activity was inhibited 50% (IC50) was determined.

[2] = tested on: MCF7 cells (human breast cancer cell MCF7); assay: MCF7 cell growth inhibition test; assay type: cell-based; conditions: read-out: IC50, MCF7 cell growth inhibitory activity
Method: as §1
(§2) Cell growth inhibition tests:
(1) MCF7 cell growth inhibition test:
(§3) MCF7 cells (4.5×10^4 cells/ml) pepared in RPMI 1640 medium containing 10% fetal calf serum, 10 μg/ml insulin and 10^-8 M estradiol are put into wells of a 96-well microtiter plate in the amount of 0.1 ml per each well. After incubation at 37° C. overnight in CO2 -incubator, 0.05 ml of a test sample appropriately diluted with the culture medium is added to each well. The cells are further cultured in CO2 -incubator, and then the culture supernatant is removed and the wells are washed once with PBS(-). Thereafter, 0.1 ml of fresh medium is added to each well, followed by culturing at 37° C. for 72 hours in CO2 -incubator. After the culture supernatant is removed, 0.1 ml of the culture medium containing 0.02% Neutral Red is added to each well, followed by culturing at 37° C. for one hour in CO2 -incubator, whereby the cells are stained. Then, the culture supernatant is removed and the cells are washed once with physiological saline. The pigment is extracted with 0.001N hydrochloric acid/30% ethanol and absorption is measured at 550 nm with a microplate reader. By comparing the absorption of intact cells with those of the cells treated with a test compound at known concentrations, the concentration of the test compound at which growth of the cells is inhibited 50% is calculated as IC50.

[3] = tested on: COLO320DM cells (human colon adenocarcinoma cell COLO320DM); assay: COLO320DM cell growth inhibition test; assay type: cell-based; conditions: COLO 320DM, read-out: IC50, COLO320DM cell growth inhibitory activity
Method: as §1, §2
(3) COLO320DM cell growth inhibition test:
COLO320DM cells (10^5 cells/ml) prepared in RPMI 1640 medium containing 10% fetal calf serum, 100 U/ml penicillin and 100 μg/ml streptomycin are put into wells of a 96-well microtiter plate in the amount of 0.1 ml per each well. Thereafter, the test is carried out in the same manner as in (1) except that the cells are counted with a microcell counter. By comparing the number of intact cells with those of the cells treated with a test compound at known concentrations, the concentration of the test compound at which growth of the cells is inhibited 50% is calculated as IC50.

[4] = tested on: HeLaS3 cells (human uterine cervical cancer HeLa cells); assay: HeLaS3 cell growth inhibition test; assay type: cell-based; conditions: read-out: IC50, HeLaS3 cell growth inhibitory activity
Method: as §1, §2, §3
(2) HaLaS3 cell growth inhibition test:
HeLaS3 cells (3×10^4 cells/ml) prepared in MEM medium containing 10% fetal calf serum and 2 mM glutamine are put into wells of a 96-well microtiter plate in the amount of 0.1 ml per each well.
Thereafter, the test is carried out in the same manner as in (1).

[5] = in words, from other filing; cited from earlier work
histamine release = conditions: in words, from other filings; cited from earlier work
C-kinase = conditions: in words, cited from earlier work; for inhibitory activity against C-kinase: from literature or other filings; for specificity of C-kinase inhibition: from literature
[6] = in words, from literature; cited from earlier work
[7] = COLO320DM, cells counted with a microcell counter, 72 hours
[8] = HeLa S3, HeLaS3, Neutral Red, 72 hours

Row | SMILES | IC50, C-Kinase inhibitory activity [1] | inhibitory activity against C-kinase (C-kinase) | specificity of C-kinase inhibition (C-kinase) | also measured
1 | COC(=O)C1(O)CC2OC1(C)n1c3ccccc3c3c4c(c5c6ccccc6n2c5c31)C(=O)NC4O (centres unmarked) [Compound 5] | 1.2 µg/mL (≈ 2.48 µM) | – | – | IC50 ([2]; MCF7, Neutral Red, 72 hours): 0.8 µg/mL (≈ 1.65 µM); IC50 [3, 7]: 2.55 µg/mL (≈ 5.27 µM); IC50 [4, 8]: 1.53 µg/mL (≈ 3.16 µM)
2 | CCSC1NC(=O)c2c1c1c3ccccc3n3c1c1c2c2ccccc2n1C1CC(O)(CO)C3(C)O1 (centres unmarked) [Compound 7] | 0.18 µg/mL (≈ 0.36 µM) | – | – | IC50 ([2]; MCF7, Neutral Red, 72 hours): 5.08 µg/mL (≈ 10.2 µM); IC50 [3, 7]: 1 µg/mL (≈ 2 µM); IC50 [4, 8]: 1.43 µg/mL (≈ 2.86 µM)
3 | COC(=O)C1(O)CC2OC1(C)n1c3ccccc3c3c4c(c5c6ccccc6n2c5c31)C(=O)NC4 (centres unmarked) [Compound K-252] | 0.016 µg/mL (≈ 0.0342 µM) | – | – | IC50 ([2]; MCF7, 72 h): 0.51 µg/mL (≈ 1.09 µM); IC50 ([3]; 72 h): 0.27 µg/mL (≈ 0.578 µM); anti-allergic activity [5]: anti-allergic activity; activity to inhibit histamine release (histamine release): activity to inhibit histamine release; IC50 ([4]; HeLa S3, 72 h): 0.2 µg/mL (≈ 0.428 µM)
4 | NCCCCCCNS(=O)(=O)c1cccc2c(Cl)cccc12 [Compound W-7, N-(6-aminohexyl)-5-chloro-1-naphthalenesulfonamide] | – | low inhibitory activity against C-kinase | low specificity | –
5 | CC12OC(CC1(O)C(=O)O)n1c3ccccc3c3c4c(c5c6ccccc6n2c5c31)CNC4=O (centres unmarked) [KT-5556] | – | – | – | activity to inhibit histamine release (histamine release): activity to inhibit histamine release
6 | CN[C@@H]1C[C@H]2O[C@@](C)([C@@H]1OC)n1c3ccccc3c3c4c(c5c6ccccc6n2c5c31)C(=O)NC4 [Staurosporine] | – | – | – | antibacterial activity [6]: antibacterial activity
7 | CN(C)CCCN1c2ccccc2Sc2ccc(Cl)cc21 [chlorpromazine] | – | low inhibitory activity against C-kinase | low specificity | –
8 | ClCCN(Cc1ccccc1)Cc1ccccc1 [dibenamine] | – | low inhibitory activity against C-kinase | low specificity | –
9 | CCCCNc1ccc(C(=O)OCCN(C)C)cc1 [tetracaine] | – | low inhibitory activity against C-kinase | low specificity | –
10 | CN1CCN(CCCN2c3ccccc3Sc3ccc(C(F)(F)F)cc32)CC1 [trifluoperazine] | – | low inhibitory activity against C-kinase | low specificity | –

— US4877776A, “K-252 compounds” (Kyowa Hakko Kogyo Co., Ltd., priority 1987, dated 1989)
